Results reported in patent US8901118B2, “Compounds and methods for kinase modulation, and indications therefor” (Plexxikon Inc., priority 2010, dated 2014).

Assays:
[1] = Relative solubility by turbidity in aqueous buffers (pH 1.5, 4.5, 6.8, 7.4); format: physicochemical; details: for turbidity threshold (L, M, H) 1.4: pH 1.5 (SGF); for turbidity threshold (L, M, H) 4.5: pH 4.5 (SIF); for turbidity threshold (L, M, H) 6.8: pH 6.8 (SIF); for turbidity threshold (L, M, H) 7.4: pH 7.4 (HEPES)
Procedure, shortened: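 Reported value: concentration at which optical density at 490, 535 and 650 nm passes 0.01, taken as the mean of the three wavelengths. Buffers were 0.5M NaCl pH 1.5, 0.05M NaH2PO4 pH 4.5 or 6.8, and 10 mM HEPES/150 mM NaCl pH 7.4, each receiving serial 1:1 DMSO dilutions of a 25 mM stock.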

[2] = target: T1, CYP1A2 (Homo sapiens, UniProt P05177); experiment: CYP1A2 inhibition (fluorescent substrate CEC); format: in vitro ADME; details: read-out: Cyp IC50 1A2
T1 sequence (P05177 1-516): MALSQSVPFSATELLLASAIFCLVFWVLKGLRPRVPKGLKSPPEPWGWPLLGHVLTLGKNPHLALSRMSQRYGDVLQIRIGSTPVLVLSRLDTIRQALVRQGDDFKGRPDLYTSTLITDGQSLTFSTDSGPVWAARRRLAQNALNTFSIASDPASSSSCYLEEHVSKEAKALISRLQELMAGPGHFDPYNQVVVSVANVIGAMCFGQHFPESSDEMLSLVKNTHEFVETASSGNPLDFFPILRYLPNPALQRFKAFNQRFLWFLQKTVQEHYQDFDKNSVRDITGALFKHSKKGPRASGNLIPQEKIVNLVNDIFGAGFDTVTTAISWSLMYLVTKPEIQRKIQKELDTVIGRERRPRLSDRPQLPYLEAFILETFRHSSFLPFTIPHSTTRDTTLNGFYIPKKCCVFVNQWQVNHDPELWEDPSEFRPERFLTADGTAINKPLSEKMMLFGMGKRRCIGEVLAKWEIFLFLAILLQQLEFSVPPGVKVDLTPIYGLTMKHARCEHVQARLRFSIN
Procedure, shortened: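 IC50 derives from metabolite fluorescence against compound concentration, read at excitation 409 nm and emission 460 nm for CYP1A2/2C19 or 530 nm for CYP2C9/2D6. Incubations ran at 37° C for 15 min (1A2), 45 min (2C9) or 30 min (2C19, 2D6), after serial dilution into NADPH cofactor mix and 10 min preincubation.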

[3] = target: CYP3A4(BFC) (Homo sapiens, UniProt P08684); experiment: CYP3A4(BFC) inhibition; format: in vitro ADME; details: CYP3A4, substrate BFC; read-out: Cyp IC50 3A4(BFC)
Sequence of CYP3A4(BFC) (P08684 whole entry): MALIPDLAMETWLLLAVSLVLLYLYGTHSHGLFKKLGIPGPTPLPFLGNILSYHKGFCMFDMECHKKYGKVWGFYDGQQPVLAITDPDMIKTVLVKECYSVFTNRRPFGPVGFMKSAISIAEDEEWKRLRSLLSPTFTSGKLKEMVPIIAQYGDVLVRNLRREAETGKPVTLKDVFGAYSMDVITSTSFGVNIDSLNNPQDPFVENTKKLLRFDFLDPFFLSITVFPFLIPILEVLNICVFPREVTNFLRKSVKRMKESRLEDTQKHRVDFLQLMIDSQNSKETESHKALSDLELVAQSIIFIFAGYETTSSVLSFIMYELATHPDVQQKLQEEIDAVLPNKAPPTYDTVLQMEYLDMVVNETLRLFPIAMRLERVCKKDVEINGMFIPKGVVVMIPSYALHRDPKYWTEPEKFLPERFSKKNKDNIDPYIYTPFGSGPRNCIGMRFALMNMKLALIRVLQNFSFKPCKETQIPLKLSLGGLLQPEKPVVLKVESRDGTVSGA
Procedure, shortened: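 This fluorescence assay tracks how test compounds reduce CYP3A4 turnover of BFC, with enzyme and substrate from BD Biosciences. A 10-point 1:1 dilution series in cofactor mix (1.3% NADPH Regeneration Solution A, 1.04% Solution B, 5% acetonitrile, 0.05% DMSO) was dispensed at 10 μL into 384 well plates, preincubated 10 minutes at 37° C, then incubated 30 min and read on a Tecan Safire 2.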

SMILES	IC50 [2] [µM]	IC50 [3] [µM]	turbidity threshold (L, M, H) 1.4 [1]	turbidity threshold (L, M, H) 4.5 [1]	turbidity threshold (L, M, H) 6.8 [1]	turbidity threshold (L, M, H) 7.4 [1]
CCC(C)Nc1ncnc2[nH]cc(C(=O)c3ccc(Nc4ccc(OC)nc4)nc3F)c12 (stereo not drawn) [Compound P-4078, [2-fluoro-6-[(6-methoxy-3-pyridyl)amino]-3-pyridyl]-[4-(sec-butylamino)-7H-pyrrolo[2,3-d]pyrimidin-5-yl]methanone]	5 to 10	> 10	M (moderate solubility if the threshold concentration is 31.3 μM to 250 μM)	L (low solubility if the threshold concentration is <31.3 μM)	L (low solubility if the threshold concentration is <31.3 μM)	L (low solubility if the threshold concentration is <31.3 μM)
COCCCNc1ncnc2[nH]cc(C(=O)c3ccc(Nc4ccc(OC)nc4)nc3F)c12 [Compound P-4079, [2-fluoro-6-[(6-methoxy-3-pyridyl)amino]-3-pyridyl]-[4-(3-methoxypropylamino)-7H-pyrrolo[2,3-d]pyrimidin-5-yl]methanone]	> 10	> 10	H (high solubility if the threshold concentration is >250 μm)	M (moderate solubility if the threshold concentration is 31.3 μM to 250 μM)	M (moderate solubility if the threshold concentration is 31.3 μM to 250 μM)	M (moderate solubility if the threshold concentration is 31.3 μM to 250 μM)
CCCCNc1ncnc2[nH]cc(C(=O)c3ccc(Nc4ccc(OC)nc4)nc3F)c12 [Compound P-4080, [4-(butylamino)-7H-pyrrolo[2,3-d]pyrimidin-5-yl]-[2-fluoro-6-[(6-methoxy-3-pyridyl)amino]-3-pyridyl]methanone]	> 10	> 10	M (moderate solubility if the threshold concentration is 31.3 μM to 250 μM)	M (moderate solubility if the threshold concentration is 31.3 μM to 250 μM)	H (high solubility if the threshold concentration is >250 μm)	M (moderate solubility if the threshold concentration is 31.3 μM to 250 μM)
COc1ccc(Nc2ccc(C(=O)c3c[nH]c4ncnc(NC5CCCCC5)c34)c(F)n2)cn1 [Compound P-4082, [4-(cyclohexylamino)-7H-pyrrolo[2,3-d]pyrimidin-5-yl]-[2-fluoro-6-[(6-methoxy-3-pyridyl)amino]-3-pyridyl]methanone]	> 10	> 10	M (moderate solubility if the threshold concentration is 31.3 μM to 250 μM)	L (low solubility if the threshold concentration is <31.3 μM)	L (low solubility if the threshold concentration is <31.3 μM)	L (low solubility if the threshold concentration is <31.3 μM)
COc1ccc(Nc2ccc(C(=O)c3c[nH]c4ncnc(NCC(F)(F)F)c34)c(F)n2)cn1 [Compound P-4084, [2-fluoro-6-[(6-methoxy-3-pyridyl)amino]-3-pyridyl]-[4-(2,2,2-trifluoroethylamino)-7H-pyrrolo[2,3-d]pyrimidin-5-yl]methanone]	> 10	> 10	M (moderate solubility if the threshold concentration is 31.3 μM to 250 μM)	M (moderate solubility if the threshold concentration is 31.3 μM to 250 μM)	M (moderate solubility if the threshold concentration is 31.3 μM to 250 μM)	H (high solubility if the threshold concentration is >250 μm)
O=C(c1ccc(NC2CCC(F)(F)CC2)nc1)c1c[nH]c2ncnc(NCC(F)(F)F)c12 [Compound P-4087, [6-[(4,4-difluorocyclohexyl)amino]-3-pyridyl]-[4-(2,2,2-trifluoroethylamino)-7H-pyrrolo[2,3-d]pyrimidin-5-yl]methanone]	> 10	> 10	H (high solubility if the threshold concentration is >250 μm)	M (moderate solubility if the threshold concentration is 31.3 μM to 250 μM)	M (moderate solubility if the threshold concentration is 31.3 μM to 250 μM)	M (moderate solubility if the threshold concentration is 31.3 μM to 250 μM)
O=C(c1ccc(Nc2ccc(C(F)(F)F)nc2)nc1F)c1c[nH]c2ncnc(NC3CC3)c12 [Compound P-4091, [4-(cyclopropylamino)-7H-pyrrolo[2,3-d]pyrimidin-5-yl]-[2-fluoro-6-[[6-(trifluoromethyl)-3-pyridyl]amino]-3-pyridyl]methanone]	> 10	> 10	H (high solubility if the threshold concentration is >250 μm)	M (moderate solubility if the threshold concentration is 31.3 μM to 250 μM)	M (moderate solubility if the threshold concentration is 31.3 μM to 250 μM)	M (moderate solubility if the threshold concentration is 31.3 μM to 250 μM)

Now from value to molecule, other results behind:

IC50 [2] [µM]	IC50 [3] [µM]	SMILES	turbidity threshold (L, M, H) 1.4 [1]	turbidity threshold (L, M, H) 4.5 [1]	turbidity threshold (L, M, H) 6.8 [1]	turbidity threshold (L, M, H) 7.4 [1]
> 10	> 10	CCNc1ncnc2[nH]cc(C(=O)c3ccc(Nc4ccc(OC)nc4)nc3F)c12 [Compound P-4081, [4-(ethylamino)-7H-pyrrolo[2,3-d]pyrimidin-5-yl]-[2-fluoro-6-[(6-methoxy-3-pyridyl)amino]-3-pyridyl]methanone]	H (high solubility if the threshold concentration is >250 μm)	M (moderate solubility if the threshold concentration is 31.3 μM to 250 μM)	H (high solubility if the threshold concentration is >250 μm)	M (moderate solubility if the threshold concentration is 31.3 μM to 250 μM)
> 10	> 10	CNc1ncnc2[nH]cc(C(=O)c3ccc(Nc4ccc(OC)nc4)nc3F)c12 [Compound P-4083, [2-fluoro-6-[(6-methoxy-3-pyridyl)amino]-3-pyridyl]-[4-(methylamino)-7H-pyrrolo[2,3-d]pyrimidin-5-yl]methanone]	M (moderate solubility if the threshold concentration is 31.3 μM to 250 μM)	M (moderate solubility if the threshold concentration is 31.3 μM to 250 μM)	M (moderate solubility if the threshold concentration is 31.3 μM to 250 μM)	H (high solubility if the threshold concentration is >250 μm)
> 10	> 10	O=C(c1ccc(NC2CCC(F)(F)CC2)nc1)c1c[nH]c2ncnc(NC3CC3)c12 [Compound P-4088, [4-(cyclopropylamino)-7H-pyrrolo[2,3-d]pyrimidin-5-yl]-[6-[(4,4-difluorocyclohexyl)amino]-3-pyridyl]methanone]	H (high solubility if the threshold concentration is >250 μm)	M (moderate solubility if the threshold concentration is 31.3 μM to 250 μM)	M (moderate solubility if the threshold concentration is 31.3 μM to 250 μM)	M (moderate solubility if the threshold concentration is 31.3 μM to 250 μM)
> 10	> 10	CNc1ncnc2[nH]cc(C(=O)c3ccc(NC4CCC(F)(F)CC4)nc3)c12 [Compound P-4089, [6-[(4,4-difluorocyclohexyl)amino]-3-pyridyl]-[4-(methylamino)-7H-pyrrolo[2,3-d]pyrimidin-5-yl]methanone]	H (high solubility if the threshold concentration is >250 μm)	M (moderate solubility if the threshold concentration is 31.3 μM to 250 μM)	M (moderate solubility if the threshold concentration is 31.3 μM to 250 μM)	M (moderate solubility if the threshold concentration is 31.3 μM to 250 μM)
